According to publication PMC10667655 (Environmental Microbiology Reports, 2023):

Key:
Format in all cases: cell-based
[1] = test system: T1, isoprene monooxygenase (IsoMO) of Rhodococcus sp. AD45; test: inhibition of isoprene uptake, headspace gas chromatography; conditions: whole cells; about 5 μM isoprene in liquid; 50 mM phosphate pH 7.0, 30°C; alkyne in DMSO
T1 construct: gene isoA; native enzyme in whole cells of isoprene-grown bacteria; four-component soluble diiron monooxygenase, a2b2g2 oxygenase; with Isoprene monooxygenase oxygenase component subunit gamma; Isoprene monooxygenase Rieske-type ferredoxin component; Isoprene monooxygenase oxygenase component subunit beta

[2] = test system: T1, isoprene monooxygenase (IsoMO) of Rhodococcus sp. AD45; test: headspace substrate depletion, whole cells, non-linear regression; conditions: whole isoprene-grown cells; 50 mM phosphate pH 7.0, 30°C; O2 co-substrate; read-out: K m(app)
Text: headspace substrate depletion, whole cells, non-linear regression on isoprene monooxygenase (IsoMO) of Rhodococcus sp. AD45

[3] = test system: T2, isoprene monooxygenase (IsoMO) of Variovorax sp. WS11; test: headspace isoprene depletion by gas chromatography, whole cells; conditions: whole fermentor-grown cells; O2 co-substrate; read-out: K m(app)
T2 construct: gene isoA; native enzyme in whole fermentor-grown cells; iso genes on a megaplasmid; with Isoprene monooxygenase oxygenase component subunit gamma; Isoprene monooxygenase Rieske-type ferredoxin component; Isoprene monooxygenase oxygenase component subunit beta
Text: headspace isoprene depletion by gas chromatography, whole cells on isoprene monooxygenase (IsoMO) of Variovorax sp. WS11

With C#CCCCCCC [1‐octyne] the “% inhibition at 50 μM” value [1] was 74%.
C=CC(=C)C [isoprene, 2‐methyl‐1,3‐butadiene] showed a Km [2] of 4 ± 1.3 µM and a Km [3] of 10.5 ± 3.9 µM.
Molecule C=CC [propylene] has a Km [2] of 2 ± 0.8 µM.
